This is an account of results in patent US20250346600A1, “TRICYCLIC DERIVATIVES AND RELATED USES” (MOMA Therapeutics, Inc., priority 2023, published 2025).

Where two headings read alike, the source gives them in different places.

Assay [1] concerns the target T1, Full length WRN protein (aa 2-1432) (Homo sapiens (Human), UniProt Q14191). Kind of assay: WRN ATPase ADP-Glo biochemical assay, Assay Format A (10 μM ATP). Conditions: 0.25 nM WRN, 100 nM C6.18 ssDNA, 30 min preincubation, read-out: ATPase ADPGlo AC50 (uM)- Assay Format A. In outline:
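ADP-Glo luminescence measured hydrolysis of ATP by purified, baculovirus-expressed N-terminally tagged full-length WRN. Enzyme (0.5 nM) was preincubated 30 min with compound, then 200 nM ssDNA C6.18 plus 20 μM ATP were added (pre-mix levels) for 30 min at RT. IC50s come from four-parameter fits, geometric mean of at least two trials.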
On the technique in general: ADP-Glo turns the ADP formed in a reaction into a luminescent signal.

For assay [2], the target named is T1, Full length WRN protein (aa 2-1432). Briefly: WRN ATPase ADP-Glo biochemical assay, Assay Format B (100 μM ATP). Conditions: 0.25 nM WRN, 100 nM C6.18 ssDNA, 60 min preincubation, read-out: ATPase ADPGlo AC50 (uM)- Assay Format B.
The subject of a further assay is HT29 cells. Kind of assay: HT29 (MSS) 7 day viability, CellTiter Glo. It counts as cell-based. Conditions: 7 days, read-out: HT29 (MSS) Viability 7 Day CTGAbs AC50. In outline: (§1)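 HCT116 seeded at 50 cells/well and HT29 at 500 cells/well onto compound plates (10-point 3-fold dilutions from 10 mM DMSO stock), incubated 7 days at 37 °C, 5% CO2.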
In another assay the test system is HCT116 cells. Kind of assay: HCT116 (MSI) 7 day viability, CellTiter Glo. Format: cell-based. Conditions: 7 days, read-out: HCT116 (MSI) Viability 7 Day Abs AC50. In outline:
as §1
(In general: ATP-based viability assays read luminescence as a measure of living cells.)

T1 sequence (Q14191 2-1432): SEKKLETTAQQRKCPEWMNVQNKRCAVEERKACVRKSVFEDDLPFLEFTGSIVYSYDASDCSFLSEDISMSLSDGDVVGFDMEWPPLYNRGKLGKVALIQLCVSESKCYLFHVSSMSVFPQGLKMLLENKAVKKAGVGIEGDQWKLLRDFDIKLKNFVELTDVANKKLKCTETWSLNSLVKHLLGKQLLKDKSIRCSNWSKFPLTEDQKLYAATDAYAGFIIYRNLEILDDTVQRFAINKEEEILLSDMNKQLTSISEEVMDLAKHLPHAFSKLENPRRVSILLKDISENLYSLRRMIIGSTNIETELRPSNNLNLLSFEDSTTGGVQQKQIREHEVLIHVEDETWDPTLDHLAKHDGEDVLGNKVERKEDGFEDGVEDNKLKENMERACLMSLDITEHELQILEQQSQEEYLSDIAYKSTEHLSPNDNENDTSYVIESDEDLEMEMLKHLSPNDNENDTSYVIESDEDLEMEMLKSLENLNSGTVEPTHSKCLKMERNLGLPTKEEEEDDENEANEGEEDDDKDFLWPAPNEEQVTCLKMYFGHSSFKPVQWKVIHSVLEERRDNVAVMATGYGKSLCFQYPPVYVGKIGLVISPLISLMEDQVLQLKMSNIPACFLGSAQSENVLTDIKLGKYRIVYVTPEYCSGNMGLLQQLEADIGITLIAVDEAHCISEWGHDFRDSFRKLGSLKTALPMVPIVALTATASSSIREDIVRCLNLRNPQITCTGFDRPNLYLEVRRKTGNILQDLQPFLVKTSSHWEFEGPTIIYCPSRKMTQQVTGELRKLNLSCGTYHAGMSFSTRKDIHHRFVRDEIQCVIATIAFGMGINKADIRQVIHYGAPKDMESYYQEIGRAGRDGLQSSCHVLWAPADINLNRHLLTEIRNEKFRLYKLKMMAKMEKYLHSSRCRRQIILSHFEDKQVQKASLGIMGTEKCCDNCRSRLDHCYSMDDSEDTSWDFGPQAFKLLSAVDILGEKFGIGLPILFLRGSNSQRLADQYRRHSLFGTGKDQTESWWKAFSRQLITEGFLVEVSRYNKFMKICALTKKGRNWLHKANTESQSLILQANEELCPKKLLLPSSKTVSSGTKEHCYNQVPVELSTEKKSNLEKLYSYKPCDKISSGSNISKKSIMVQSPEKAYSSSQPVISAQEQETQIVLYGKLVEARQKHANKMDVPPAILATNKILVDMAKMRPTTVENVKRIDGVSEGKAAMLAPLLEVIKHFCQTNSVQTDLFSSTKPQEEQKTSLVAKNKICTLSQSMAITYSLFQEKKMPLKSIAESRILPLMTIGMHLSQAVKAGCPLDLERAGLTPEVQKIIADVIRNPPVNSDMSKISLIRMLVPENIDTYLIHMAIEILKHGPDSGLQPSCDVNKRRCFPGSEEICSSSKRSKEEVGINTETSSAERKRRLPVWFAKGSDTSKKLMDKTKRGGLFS

With `C=CC(=O)N1CCc2nn(-c3ccc(C(C)C)cc3)c3c2C(C1)N(C(=O)c1cnc(C(F)(F)F)c(OC)c1)CC3` (stereo not shown) [Compound 12, 1-(2-(4-isopropylphenyl)-5-(5-methoxy-6-(trifluoromethyl)nicotinoyl)-2,3,4,5,5a,6,8,9-octahydro-7H-1,2,5,7-tetraazabenzo[cd]azulen-7-yl)prop-2-en-1-one], the concentration at half-maximal activity (AC50) is under 0.0015 µM in assay [1]; 0.015 to 0.055 µM in assay [2]; over 3000 nM in the assay on HT29 cells (Homo sapiens, HT-29, 168 h); 1 to 100 nM with HCT116 cells (Homo sapiens, HCT-116, 168 h).
The like results for `C=CC(=O)N1CCc2nn(-c3ccc(C4CCC4)cc3)c3c2C(C1)N(C(=O)c1cnc(C(F)(F)F)nc1N)CC3` (stereo not shown) [Compound 161, 1-(5-(4-amino-2-(trifluoromethyl)pyrimidine-5-carbonyl)-2-(4-cyclobutylphenyl)-2,3,4,5,5a,6,8,9-octahydro-7H-1,2,5,7-tetraazabenzo[cd]azulen-7-yl)prop-2-en-1-one] were, in that order, under 0.0015 µM, 0.005 to 0.015 µM, over 3000 nM and 1 to 100 nM.
For the molecule `C=CC(=O)N1CC(OCc2ncco2)c2nn(-c3ccc(C4CC4)cc3)c3c2C(C1)N(C(=O)c1cnc(C(F)(F)F)cc1N)CC3` (stereo not shown) [Compound 250, 1-(5-(4-amino-6-(trifluoromethyl)nicotinoyl)-2-(4-cyclopropylphenyl)-9-(oxazol-2-ylmethoxy)-2,3,4,5,5a,6,8,9-octahydro-7H-1,2,5,7-tetraazabenzo[cd]azulen-7-yl)prop-2-en-1-one], the half-maximal activity concentration (AC50) in assay [1] is under 0.0015 µM; in assay [2] it was under 0.0015 µM; in the assay with HT29 cells (Homo sapiens, HT-29, 168 h) it was over 3000 nM; with HCT116 cells (Homo sapiens, HCT-116, 168 h), 1 to 100 nM.
With `C=CC(=O)N1CCc2nn(-c3ccc(C45CC(C4)C5)cc3)c3c2C(C1)N(C(=O)c1ccc(Br)c2[nH]cnc12)CC3` (stereo not shown) [Compound 4, 1-(2-(4-(bicyclo[1.1.1]pentan-1-yl)phenyl)-5-(7-bromo-1H-benzo[d]imidazole-4-carbonyl)-2,3,4,5,5a,6,8,9-octahydro-7H-1,2,5,7-tetraazabenzo[cd]azulen-7-yl)prop-2-en-1-one], the AC50 is under 0.0015 µM in assay [1]; 0.015 to 0.055 µM in assay [2]; over 3000 nM in the assay with HT29 cells (Homo sapiens, HT-29, 168 h); 1 to 100 nM in the assay with HCT116 cells (Homo sapiens, HCT-116, 168 h).
For `C=CC(=O)N1CCc2nn(-c3ccc(C4CC4)c(F)c3O)c3c2C(C1)N(C(=O)c1cnc(OC(F)(F)F)c(F)c1N)CC3` (stereo not shown) [Compound 258, 1-(5-(4-amino-5-fluoro-6-(trifluoromethoxy)nicotinoyl)-2-(4-cyclopropyl-3-fluoro-2-hydroxyphenyl)-2,3,4,5,5a,6,8,9-octahydro-7H-1,2,5,7-tetraazabenzo[cd]azulen-7-yl)prop-2-en-1-one], in that order: 0.005 to 0.015 µM, 0.015 to 0.055 µM, over 3000 nM and 1 to 100 nM.
For `C=CC(=O)N1CCc2nn(-c3ccc(C4CCC4)cc3O)c3c2C(C1)N(C(=O)c1ncc(C(F)(F)F)cc1N)CC3` (stereo not shown) [Compound 142, 1-(5-(3-amino-5-(trifluoromethyl)picolinoyl)-2-(4-cyclobutyl-2-hydroxyphenyl)-2,3,4,5,5a,6,8,9-octahydro-7H-1,2,5,7-tetraazabenzo[cd]azulen-7-yl)prop-2-en-1-one], in that order: under 0.0015 µM, 0.015 to 0.055 µM, over 3000 nM and 1 to 100 nM.
The like results for `C=CC(=O)N1CCc2nn(-c3ccc(C4CC4)c(F)c3OC)c3c2C(C1)N(C(=O)c1cnc(C(F)(F)F)c(O)c1)CC3` (stereo not shown) [Compound 63, 1-(2-(4-cyclopropyl-3-fluoro-2-methoxyphenyl)-5-(5-hydroxy-6-(trifluoromethyl)nicotinoyl)-2,3,4,5,5a,6,8,9-octahydro-7H-1,2,5,7-tetraazabenzo[cd]azulen-7-yl)prop-2-en-1-one] were, in that order, 0.0015 to 0.005 µM, 0.015 to 0.055 µM, over 3000 nM and 500 to 1000 nM.
Turning to `C=CC(=O)N1CCc2nn(-c3ccc(C(C)C)cc3O)c3c2C(C1)N(C(=O)c1cnc(Br)c2[nH]cnc12)CC3` (stereo not shown) [Compound 22, 1-(5-(4-bromo-3H-imidazo[4,5-c]pyridine-7-carbonyl)-2-(2-hydroxy-4-isopropylphenyl)-2,3,4,5,5a,6,8,9-octahydro-7H-1,2,5,7-tetraazabenzo[cd]azulen-7-yl)prop-2-en-1-one], the half-maximal activity concentration (AC50) in assay [1] is 0.0015 to 0.005 µM; in assay [2], 0.015 to 0.055 µM; in the assay with HT29 cells (Homo sapiens, HT-29, 168 h), over 3000 nM; in the assay with HCT116 cells (Homo sapiens, HCT-116, 168 h), 250 to 500 nM.
As to `C=CC(=O)N1CC(OC)c2nn(-c3ccc(C4CCC4)cc3)c3c2C(C1)N(C(=O)c1ccc(Br)c2[nH]cnc12)CC3` (stereo not shown) [Compound 27, 1-(5-(7-bromo-1H-benzo[d]imidazole-4-carbonyl)-2-(4-cyclobutylphenyl)-9-methoxy-2,3,4,5,5a,6,8,9-octahydro-7H-1,2,5,7-tetraazabenzo[cd]azulen-7-yl)prop-2-en-1-one], the AC50 was under 0.0015 µM in assay [1]; 0.0015 to 0.005 µM in assay [2]; over 3000 nM in the assay with HT29 cells (Homo sapiens, HT-29, 168 h); 1 to 100 nM with HCT116 cells (Homo sapiens, HCT-116, 168 h).
Take `C=CC(=O)N1CCc2nn(-c3ccc(C45CC(C4)C5)cc3)c3c2C(C1)N(C(=O)c1ccc(C(F)(F)F)nc1N)CC3` (stereo not shown) [Compound 152, 1-(5-(2-amino-6-(trifluoromethyl)nicotinoyl)-2-(4-(bicyclo[1.1.1]pentan-1-yl)phenyl)-2,3,4,5,5a,6,8,9-octahydro-7H-1,2,5,7-tetraazabenzo[cd]azulen-7-yl)prop-2-en-1-one]: the AC50 in assay [1] is under 0.0015 µM; in assay [2] it was 0.015 to 0.055 µM; in the assay with HT29 cells (Homo sapiens, HT-29, 168 h) it was over 3000 nM; in the assay with HCT116 cells (Homo sapiens, HCT-116, 168 h), 1 to 100 nM.
The like results for `C=CC(=O)N1CC(OC2CC2)c2nn(-c3ccc(C4CCC4)cc3)c3c2C(C1)N(C(=O)c1cnc(C(F)(F)F)cc1N)CC3` (stereo not shown) [Compound 129, 1-(5-(4-amino-6-(trifluoromethyl)nicotinoyl)-2-(4-cyclobutylphenyl)-9-cyclopropoxy-2,3,4,5,5a,6,8,9-octahydro-7H-1,2,5,7-tetraazabenzo[cd]azulen-7-yl)prop-2-en-1-one] were, in that order, under 0.0015 µM, 0.0015 to 0.005 µM, 1000 to 3000 nM and 1 to 100 nM.
The like results for `C=CC(=O)N1CCc2nn(-c3ccc(C(C)C)cc3)c3c2C(C1)N(C(=O)c1ccc(Br)c2[nH]c(N)nc12)CC3` (stereo not shown) [Compound 8, 1-(5-(2-amino-7-bromo-1H-benzo[d]imidazole-4-carbonyl)-2-(4-isopropylphenyl)-2,3,4,5,5a,6,8,9-octahydro-7H-1,2,5,7-tetraazabenzo[cd]azulen-7-yl)prop-2-en-1-one] were, in that order, under 0.0015 µM, 0.005 to 0.015 µM, over 3000 nM and 1 to 100 nM.
As to `C=CC(=O)N1CCc2nn(-c3ccc(C4CC4)cc3)c3c2C(C1)N(C(=O)c1cnc(Cl)cc1N)CC3` (stereo not shown) [Compound 162, 1-(5-(4-amino-6-chloronicotinoyl)-2-(4-cyclopropylphenyl)-2,3,4,5,5a,6,8,9-octahydro-7H-1,2,5,7-tetraazabenzo[cd]azulen-7-yl)prop-2-en-1-one], the AC50 in assay [1] was under 0.0015 µM; in assay [2], 0.005 to 0.015 µM; with HT29 cells, over 3000 nM; in the assay on HCT116 cells, 1 to 100 nM.

Broadly, the AC50 is the concentration giving half of the maximal activity seen.
